Laboratory results taken from the NIST ThermoML archive (doi:10.1016/j.jct.2008.05.014).

Assay: xn = mol fraction of the nth substance listed
Conditions: Liquid; for speed of sound: Pulse-echo method

CCCCCCCCCCCC [dodecane] + CCCCCCC
Conditions	mass density [kg/m3]	speed of sound [m/s]
313.11 K, 75990 kPa, x2 = 0.1014	–	1575.8
313.11 K, 75990 kPa, x2 = 0.3007	–	1560.1
313.11 K, 75990 kPa, x2 = 0.5003	–	1544.4
313.11 K, 75990 kPa, x2 = 0.7007	–	1524.1
313.11 K, 91180 kPa, x2 = 0.1014	–	1630.7
313.11 K, 91180 kPa, x2 = 0.3007	–	1616.4
313.11 K, 91180 kPa, x2 = 0.5003	–	1601.4
313.11 K, 101320 kPa, x2 = 0.3007	–	1651.1
313.11 K, 101320 kPa, x2 = 0.5003	–	1637
313.11 K, 101320 kPa, x2 = 0.7007	–	1618.5
313.12 K, 101 kPa, x2 = 0.8	–	1108.9
313.12 K, 15200 kPa, x2 = 0.5003	–	1261.2
313.12 K, 30390 kPa, x2 = 0.8496	–	1297.9
313.12 K, 45590 kPa, x2 = 0.3007	–	1435.5
313.12 K, 45590 kPa, x2 = 0.8496	–	1375.3
313.12 K, 60790 kPa, x2 = 0.3007	–	1500.5
313.12 K, 60790 kPa, x2 = 0.8496	–	1444.9
313.12 K, 75990 kPa, x2 = 0.8496	–	1508.4
313.12 K, 91180 kPa, x2 = 0.8496	–	1566.8
313.12 K, 101320 kPa, x2 = 0.8496	–	1604
313.13 K, 101 kPa, x2 = 0.2001	–	1199.7
313.13 K, 101 kPa, x2 = 0.5002	–	1159.9
313.13 K, 15200 kPa, x2 = 0.8496	–	1209.3
313.14 K, 101 kPa, x2 = 0.1007	–	1210.7
313.15 K, 101 kPa, x2 = 0	734.369	–
313.15 K, 101 kPa, x2 = 0.0991	730.129	–
313.15 K, 101 kPa, x2 = 0.2008	725.372	–
313.15 K, 101 kPa, x2 = 0.2998	720.306	–
313.15 K, 101 kPa, x2 = 0.3996	714.763	–
313.15 K, 101 kPa, x2 = 0.5	708.645	–
313.15 K, 101 kPa, x2 = 0.6	701.955	–
313.15 K, 101 kPa, x2 = 0.7005	694.545	–
313.15 K, 101 kPa, x2 = 0.7995	686.378	–
313.15 K, 101 kPa, x2 = 0.8486	682.014	–
313.15 K, 101 kPa, x2 = 0.8988	677.238	–
313.15 K, 101 kPa, x2 = 0.9498	672.083	–
313.21 K, 15200 kPa, x2 = 0	–	1313.4
313.21 K, 30390 kPa, x2 = 0	–	1391.1
313.21 K, 45590 kPa, x2 = 0	–	1460.8
313.21 K, 60790 kPa, x2 = 0	–	1524.1
313.21 K, 75990 kPa, x2 = 0	–	1582.5
313.21 K, 91180 kPa, x2 = 0	–	1637.3
313.21 K, 101320 kPa, x2 = 0	–	1671.3
318.15 K, 101 kPa, x2 = 0	730.715	–
318.15 K, 101 kPa, x2 = 0.0991	726.449	–
318.15 K, 101 kPa, x2 = 0.2008	721.654	–
318.15 K, 101 kPa, x2 = 0.2998	716.534	–
318.15 K, 101 kPa, x2 = 0.3996	710.938	–
318.15 K, 101 kPa, x2 = 0.5	704.756	–
318.15 K, 101 kPa, x2 = 0.6	698	–
318.15 K, 101 kPa, x2 = 0.7005	690.511	–
318.15 K, 101 kPa, x2 = 0.7995	682.231	–
318.15 K, 101 kPa, x2 = 0.8486	677.842	–
318.15 K, 101 kPa, x2 = 0.8988	673.004	–
318.15 K, 101 kPa, x2 = 0.9498	667.78	–
318.17 K, 30390 kPa, x2 = 0.9391	–	1264.9
318.17 K, 60790 kPa, x2 = 0.9391	–	1416.7
318.17 K, 75990 kPa, x2 = 0.9391	–	1481.5
318.17 K, 91180 kPa, x2 = 0.9391	–	1540.9
318.17 K, 101320 kPa, x2 = 0.9391	–	1578.8
318.18 K, 15200 kPa, x2 = 0.9391	–	1172.9
318.18 K, 30390 kPa, x2 = 0.4999	–	1327.8
318.18 K, 45590 kPa, x2 = 0.4999	–	1402.2
318.18 K, 45590 kPa, x2 = 0.9391	–	1345
318.18 K, 60790 kPa, x2 = 0.4999	–	1469.5
318.18 K, 75990 kPa, x2 = 0.4999	–	1530.5
318.18 K, 75990 kPa, x2 = 0.97	–	1479.1
318.18 K, 91180 kPa, x2 = 0.4999	–	1587.8
318.18 K, 101320 kPa, x2 = 0.4999	–	1623.8
318.19 K, 15200 kPa, x2 = 0.4999	–	1243.6
318.19 K, 15200 kPa, x2 = 0.97	–	1168.4
318.19 K, 30390 kPa, x2 = 0.97	–	1261.1
318.19 K, 45590 kPa, x2 = 0.8496	–	1359.9
318.19 K, 45590 kPa, x2 = 0.97	–	1341.7
318.19 K, 60790 kPa, x2 = 0.97	–	1413.8
318.19 K, 91180 kPa, x2 = 0.97	–	1538.7
318.19 K, 101320 kPa, x2 = 0.1014	–	1652.2
318.19 K, 101320 kPa, x2 = 0.97	–	1576.7
318.2 K, 15200 kPa, x2 = 0.1014	–	1286.7
318.2 K, 15200 kPa, x2 = 0.8496	–	1191.3
318.2 K, 30390 kPa, x2 = 0.1014	–	1366.6
318.2 K, 30390 kPa, x2 = 0.8496	–	1281.3
318.2 K, 45590 kPa, x2 = 0.1014	–	1437.8
318.2 K, 60790 kPa, x2 = 0.1014	–	1502.5
318.2 K, 60790 kPa, x2 = 0.8496	–	1430.4
318.2 K, 75990 kPa, x2 = 0.8496	–	1494.5
318.2 K, 76190 kPa, x2 = 0.1014	–	1562.6
318.2 K, 91180 kPa, x2 = 0.1014	–	1617.7
318.2 K, 91180 kPa, x2 = 0.8496	–	1553.3
318.2 K, 101320 kPa, x2 = 0.8496	–	1590.8
318.28 K, 101320 kPa, x2 = 0.5003	–	1623.8
318.29 K, 15200 kPa, x2 = 0	–	1296.2
318.29 K, 15200 kPa, x2 = 0.3007	–	1265.2
318.29 K, 15200 kPa, x2 = 0.5003	–	1243.2
318.29 K, 30390 kPa, x2 = 0	–	1375
318.29 K, 30390 kPa, x2 = 0.5003	–	1327.5
318.29 K, 45590 kPa, x2 = 0	–	1445.5
318.29 K, 45590 kPa, x2 = 0.3007	–	1420.2
318.29 K, 45590 kPa, x2 = 0.5003	–	1401.9
318.29 K, 60790 kPa, x2 = 0	–	1509.7
318.29 K, 60790 kPa, x2 = 0.3007	–	1486
318.29 K, 60790 kPa, x2 = 0.5003	–	1469.1
318.29 K, 75990 kPa, x2 = 0.3007	–	1546.1
318.29 K, 75990 kPa, x2 = 0.5003	–	1530.4
318.29 K, 91180 kPa, x2 = 0	–	1624.1
318.29 K, 91180 kPa, x2 = 0.3007	–	1602.7
318.29 K, 91180 kPa, x2 = 0.5003	–	1587.6
318.29 K, 101320 kPa, x2 = 0	–	1658.5
318.29 K, 101320 kPa, x2 = 0.3007	–	1638.2
318.3 K, 30390 kPa, x2 = 0.3007	–	1347.3
318.3 K, 75990 kPa, x2 = 0	–	1568.8
318.3 K, 75990 kPa, x2 = 0.7007	–	1510
318.3 K, 101320 kPa, x2 = 0.7007	–	1605
318.31 K, 15200 kPa, x2 = 0.7007	–	1213.9
318.31 K, 30390 kPa, x2 = 0.7007	–	1301.3
318.31 K, 45590 kPa, x2 = 0.7007	–	1378
318.31 K, 60790 kPa, x2 = 0.7007	–	1447.1
318.31 K, 91180 kPa, x2 = 0.7007	–	1568.1
318.37 K, 101 kPa, x2 = 0.6	–	1123.2
318.38 K, 101 kPa, x2 = 0.7002	–	1105.9
318.38 K, 101 kPa, x2 = 0.8995	–	1066.3
318.39 K, 101 kPa, x2 = 0	–	1200.9
318.39 K, 101 kPa, x2 = 0.3002	–	1167
318.39 K, 101 kPa, x2 = 0.3996	–	1153.6
318.4 K, 101 kPa, x2 = 0.1007	–	1190.5
318.4 K, 101 kPa, x2 = 0.8	–	1087
318.41 K, 101 kPa, x2 = 0.2001	–	1179.3
318.41 K, 101 kPa, x2 = 0.5002	–	1138.9
